Data as given in patent US20190282600A1, “COMBINATION THERAPIES TARGETING TERT DEPENDENCY FOR CANCER THERAPY” (The Wistar Institute of Anatomy and Biology, priority 2018, published 2019).

Tests used:
[1] = system: NRAS mutant melanoma cells; test: Cell death by flow cytometry (PSVue or Annexin V/PI); type: cell-based, Human
Procedure: (§1) FIGS. 2a to 2c show NRAS^mut melanoma cells (FIG. 2a), BRAF-V600E/NRAS mutant cells derived from melanoma patients resistant to BRAF/MEK inhibitors (FIG. 2b), or non-transformed melanocytes and fibroblasts (FIG. 2c) were treated with 6-thio-dG for 7 days. Cell viability was measured by Alamar Blue assay and calculated relative to DMSO-treated cells. […] Cell death was assessed by PSVUe staining. Percent of apoptotic cells is shown. […] Mean TRF length expressed as kilobase pairs is indicated at the bottom. […] FIG. 2g provides a bar graph showing that DNA damage was assessed by γH2AX staining. Data represent average from three independent experiments ±SEM. *p<0.05; **p<0.01; ***p<0.005 in unpaired Student's t-test. As presented in FIG. 2h, mice bearing established WM3000 or M93-047 NRAS^mut tumors were treated with vehicle control or 6-thio-dG (2.5 mg/kg i.p; q.d). Tumor volume was measured and average tumor volume (n=4) ±SEM was plotted vs. time.
FIGS. 3a to 3g provides graphs showing that telomere dysfunction enhances oxidative stress leading to upregulation of an antioxidant program. […] Mitochondrial superoxide production was measured by MitoSox Red fluorescence (FIGS. 3c, and 3d) and expressed as fluorescence relative to vector or DMSO controls. […] FIG. 3f provides a bar graph showing that SOD2 was silenced using shRNA. Transduced M93-047 cells were treated with DMSO or 1 μM of 6-thio-dG and cell death was assessed by Annexin V/PI straining. As presented in FIG. 3g, M93-047 cells were transduced with a SOD2 lentiviral construct or empty vector control (pLX304). Transduced cells were treated with increasing doses (1, 2.5 and 5 μM) of 6-thio-dG for 7 days and cell death was assessed. Data represent average from three independent experiments ±SEM. *p<0.05; **p<0.01; ***p<0.005 in unpaired Student's t-test.
FIGS. 4a to 4e provides bar graphs showing that induction of telomere and mitochondrial dysfunction triggers cell death in NRAS mutant melanoma. […] Cell death was assessed by Annexin V and PI staining. […] Cells were stained with Annexin V and PI and percent cell death was determined by flow cytometry. […] P values were calculated using unpaired Student's t-test; * p<0.05; *** p<0.005.
As presented in FIG. 16a, SOD2 was silenced using shRNA. Transduced WM3000 cells were treated with DMSO or 1 μM of 6-thio-dG and cell death was assessed by Annexin V/PI straining. […] Transduced cells were treated with increasing doses (1, 2.5 and 5 μM) of 6-thio-dG for 10 days and cell death was assessed. […]
In FIG. 17a, NRAS^mut melanoma cells were treated with 6-thio-dG (1 μM) for 7 days total. […] Percent cell death was determined by flow cytometry following staining of cells with Annexin V and Propidium iodide. […]

[2] = system: NRAS mutant melanoma cells; test: Telomere length assay (TRF Southern blotting); type: cell-based, Human; conditions: 1 μM 6-thio-dG for 14 days
Procedure: as §1
Genomic DNA was prepared using Wizard genomic DNA purification kit (Promega) following manufacturer's instruction. […] The images were analyzed with Phosphorimager, visualized by Typhoon 9410 Imager (GE Healthcare), and processed with ImageQuant 5.2 software (Molecular Dynamics).

Nc1nc2c(ncn2[C@H]2C[C@H](O)[C@@H](CO)O2)c(=S)[nH]1 [6-thio-dG, 6-thio-2′-deoxyguanosine]
cell death (PSVue staining) ([1]; 1 or 5 μM 6-thio-dG for 7 or 14 days): led to cell death after 7-14 days | apoptosis / cell death ([1]; SOD2 overexpression, 1, 2.5 and 5 μM 6-thio-dG for 7 or 10 days, M93-047, WM3000): attenuated the apoptosis-inducing effects | apoptosis / cell death (Annexin V/PI) ([1]; SOD2 silenced by shRNA, 1 μM 6-thio-dG, M93-047, WM3000): enhanced the ability of 6-Thio-dG to induce apoptosis | telomere length (mean TRF) [2]: without evidence for significant telomere shortening
